We go through 30 compounds from US20160129089A1, “COMBINATION THERAPY” (ANTISENSE THERAPEUTICS LTD, priority 2013, published 2016).

e = 2'-O-(2-methoxyethyl) (MOE); d = 2'-deoxy (DNA) Some results are limits rather than exact numbers.

In one series the test system is liver GHr RNA. As to the kind of experiment: Monotherapy and combination mouse study: relative liver GHR RNA. The format is in vivo, mice. Conditions: compared to saline control; for reduction of liver GHr RNA: week 3. The source says: (§1) The GHr and IGF-I RNA data were statistically analysed using one-way ANOVA followed by Dunnetts test when comparing treated to saline control. The sIGF-I data were statistically analyzed using one-way […] comparisons.

In a further series the test system is liver IGF-I RNA. As to the kind of experiment: Monotherapy and combination mouse study: relative liver IGF-I RNA. The note with it: compared to saline control; for reduction of liver IGF-I RNA: week 3, p=0.05. It counts as in vivo, mice.
Source text: as §1

The subject of a further series is serum IGF-I. The series is described as follows: Monotherapy and combination mouse study: serum IGF-I. The format is in vivo, mice. The note with it: for reduction of sIGF-I: week 1.
Source text: as §1

Series [1] relates to human growth hormone receptor mRNA. As to the kind of experiment: Inhibition of human growth hormone receptor mRNA levels by antisense oligonucleotides, quantitative real-time PCR, MCF7 cells. It counts as cell-based. Details: concentration or dose not given beside the values. The note with it: averages from three experiments. As for the experimental part:
“Target site” indicates the first (5′-most) nucleotide number on the particular target sequence to which the oligonucleotide binds. “% Inhib” indicates the inhibitory effect on hGHR mRNA levels by quantitative real-time PCR. Data are averages from three experiments in which MCF7 cells were treated with the antisense oligonucleotides.
All oligonucelotides in Table 1 are chimeric oligonucleotides (“gapmers”), 20 nucleotides in length, composed of a central “gap” region consisting of ten 2′-deoxynucleotides, which is flanked on both sides (5′ and 3′ directions) by five-nucleotide “wings”. The wings are composed of 2′-methoxyethyl (2′-MOE) nucleotides. The internucleoside (backbone) linkages are phosphorothioate (P═S) throughout the oligonucleotide. All uracils are 5-methyluracils (^MeU). Typically, the oligonucleotide is synthesized using 2-methoxyethyl modified thymidines not 5-methyluracils. All pyrimidines are C5 methylated (i.e., U, T, C are C5 methylated).
In general terms: Real-time PCR tracks product formation cycle by cycle.

For `C[C@@H](O)[C@@H]1NC(=O)[C@H](CCCCN)NC(=O)[C@@H](Cc2c[nH]c3ccccc23)NC(=O)[C@H](Cc2ccccc2)NC(=O)[C@@H](NC(=O)[C@H](N)Cc2ccccc2)CSSC[C@@H](C(=O)N[C@H](CO)[C@@H](C)O)NC1=O` [Octreotide, reference compound], the “reduction of liver GHr RNA” value with liver GHr RNA (octreotide 1.25 mg/kg twice daily, p=0.001) worked out at 82.9%. In addition, the “reduction of liver IGF-I RNA” value in the series with liver IGF-I RNA (octreotide 1.25 mg/kg twice daily) turned out to be 47.7%. Further, the “reduction of sIGF-I” value was found to be 15% with serum IGF-I (octreotide 1.25 mg/kg twice daily, compared to baseline control levels, p<0.04) and 25.1% in the series with serum IGF-I (octreotide 1.25 mg/kg twice daily, p=0.012). In addition, the “reduction of serum IGF-I” value in the series with serum IGF-I (octreotide 1.25 mg/kg twice daily, week 3, compared to saline control, p=0.03) came to 25.2%.

In the case of “272334 (antisense AAGAAAGGCTAAGGCATGAT; sugars from the 5' end e5 d10 e5, all phosphorothioate, methylation of C not given here) [compound 272334]”, the “% INHIB (inhibitory effect on hGHR mRNA levels)” value (“% INHIB” for short) in series [1] is recorded as 61%.

Regarding “227502 (antisense GATTGAGGTATTTAGCTATT; sugars from the 5' end e5 d10 e5, all phosphorothioate, methylation of C not given here) [compound 227502]”, the “% INHIB” value in series [1] worked out at 56%.

As for “272329 (antisense ACTTTTTGGCATCTGCCTCA; sugars from the 5' end e5 d10 e5, all phosphorothioate, methylation of C not given here) [compound 272329]”, the “% INHIB” value in series [1] is 63%.

Take “272312 (antisense GGGTGGATCTGGTTGCACTA; sugars from the 5' end e5 d10 e5, all phosphorothioate, methylation of C not given here) [compound 272312]”: the “% INHIB” value in series [1] was determined as 57%.

Take “272321 (antisense AACCCAAGAGTCATCACTGT; sugars from the 5' end e5 d10 e5, all phosphorothioate, methylation of C not given here) [compound 272321]”: the “% INHIB” value in series [1] stood at 64%.

In the case of “272342 (antisense TAGTGAGAAAGAAAGTTTCT; sugars from the 5' end e5 d10 e5, all phosphorothioate, methylation of C not given here) [compound 272342]”, the “% INHIB” value in series [1] is listed as 45%.

With “272305 (antisense TTGTCTTTAGGCCTGGATTA; sugars from the 5' end e5 d10 e5, all phosphorothioate, methylation of C not given here) [compound 272305]”, the “% INHIB” value in series [1] is on record as 68%.

“272335 (antisense AAATACGTAGCTCTTGGGAA; sugars from the 5' end e5 d10 e5, all phosphorothioate, methylation of C not given here) [compound 272335]”: the “% INHIB” value in series [1] was found to be 47%.

For the compound “227488 (antisense AGTTGGTCTGTGCTCACATA; sugars from the 5' end e5 d10 e5, all phosphorothioate, methylation of C not given here) [compound 227488]”, the “% INHIB” value in series [1] came out at 86%.

For the compound “272315 (antisense CAATGAGTACACTGGAACTG; sugars from the 5' end e5 d10 e5, all phosphorothioate, methylation of C not given here) [compound 272315]”, in series [1], the “% INHIB” value is recorded as 53%.

Take “272359 (antisense TCCAAATATTCTGGTACTTT; sugars from the 5' end e5 d10 e5, all phosphorothioate, methylation of C not given here) [compound 272359]”: in series [1], the “% INHIB” value is 72%.

In the case of “272303 (antisense CCAGAGATCCATACCTGTAG; sugars from the 5' end e5 d10 e5, all phosphorothioate, methylation of C not given here) [compound 272303]”, the “% INHIB” value in series [1] is on record as 55%.

For “272338 (antisense GTGCTATGGTTTGCATTCAA; sugars from the 5' end e5 d10 e5, all phosphorothioate, methylation of C not given here) [compound 272338]”, the “% INHIB” value in series [1] is 78%.

In the case of “Somavert: current medicinal treatment for acromegaly, used as monotherapy or with a Somatostatin agonist”, the “reduction of liver GHr RNA” value in the series on liver GHr RNA (Somavert 20 mg/kg, every other day, p=0.01) amounted to 79.9%. Besides, the “increase of liver GHr RNA” value with liver GHr RNA (Somavert lower dose 5 mg/kg, every other day, p=0.05) was 23%. Further, in the series on liver IGF-I RNA (Somavert 20 mg/kg, every other day), the “reduction of liver IGF-I RNA” value is 43.2%. Besides, in the series with liver IGF-I RNA (Somavert lower dose 5 mg/kg, every other day), the “effect on liver IGF-I RNA” value was “no effect”. For the same compound, the “increase of sIGF-I levels” value in the series on serum IGF-I (higher Somavert dose, 1 week, patent suspects an issue with the assay) is reported as above 2 fold.

As for “272352 (antisense CCAAAATGACATTCTGAGAC; sugars from the 5' end e5 d10 e5, all phosphorothioate, methylation of C not given here) [compound 272352]”, the “% INHIB” value in series [1] turned out to be 77%.

As for “272328 (antisense GGCATTGTCCATAAGGAAGT; sugars from the 5' end e5 d10 e5, all phosphorothioate, methylation of C not given here) [compound 272328]”, the “% INHIB” value in series [1] is listed as 85%.

As for “227468 (antisense TCATCAATATCTAGCTCAAT; sugars from the 5' end e5 d10 e5, all phosphorothioate, methylation of C not given here) [compound 227468]”, the “% INHIB” value in series [1] amounted to 62%.

Regarding “227490 (antisense GCATGATTTTGTTCAGTTGG; sugars from the 5' end e5 d10 e5, all phosphorothioate, methylation of C not given here) [compound 227490]”, the “% INHIB” value in series [1] amounted to 67%.

As for “227481 (antisense TGGTGATGTAAATGTCCTCT; sugars from the 5' end e5 d10 e5, all phosphorothioate, methylation of C not given here) [compound 227481]”, the “% INHIB” value in series [1] is 45%.

Consider “272326 (antisense ACTCAGCTCCTTCAGTAGGA; sugars from the 5' end e5 d10 e5, all phosphorothioate, methylation of C not given here) [compound 272326]”, for which the “% INHIB” value in series [1] is listed as 77%.

In the case of “272324 (antisense TATGTCATTGGCATTGAAAT; sugars from the 5' end e5 d10 e5, all phosphorothioate, methylation of C not given here) [compound 272324]”, the “% INHIB” value in series [1] is given as 53%.

Take “272332 (antisense CTCTTTGTCAGGCAAGGGCA; sugars from the 5' end e5 d10 e5, all phosphorothioate, methylation of C not given here) [compound 272332]”: the “% INHIB” value in series [1] came out at 75%.

As to “272309 (antisense TAACAGCTGTTTTCCCCAGC; sugars from the 5' end e5 d10 e5, all phosphorothioate, methylation of C not given here) [compound 272309]”, in series [1], the “% INHIB” value is on record as 85%.

For “272320 (antisense AGATTGTGTTCACCTCCTCT; sugars from the 5' end e5 d10 e5, all phosphorothioate, methylation of C not given here) [compound 272320]”, the “% INHIB” value in series [1] is recorded as 70%.

For “272302 (antisense GATCCATACCTGTAGGACCT; sugars from the 5' end e5 d10 e5, all phosphorothioate, methylation of C not given here) [compound 272302]”, in series [1], the “% INHIB” value is 60%.

For “272323 (antisense TGTGTCTGATTCCTCAGTCT; sugars from the 5' end e5 d10 e5, all phosphorothioate, methylation of C not given here) [compound 272323]”, in series [1], the “% INHIB” value is 67%.

As for “272311 (antisense TTGCACTATTTCATCAACAG; sugars from the 5' end e5 d10 e5, all phosphorothioate, methylation of C not given here) [compound 272311]”, in series [1], the “% INHIB” value came out at 47%.

On to “272310 (antisense TTTCATCCACTGTACCACCA; sugars from the 5' end e5 d10 e5, all phosphorothioate, methylation of C not given here) [compound 272310]”, for which the “% INHIB” value in series [1] is 76%.

For the compound “272346 (antisense CTCTTGGAGAAAACCATAGC; sugars from the 5' end e5 d10 e5, all phosphorothioate, methylation of C not given here) [compound 272346]”, the “% INHIB” value in series [1] amounted to 67%.
